# Results taken from patent US9493466B2, “Treatment of cancer with TOR kinase inhibitors” (Signal Pharmaceuticals, LLC, priority 2011, dated 2016).
# How the values were obtained:
# Assay type in all cases: cell-based
# Hep3B = assay: Growth inhibition assay for HCC lines; conditions: 96 hours, DMEM + 10% FBS
# Experimental: (§1) Growth Inhibition Assay for HCC and NHL Lines. The seeding density for each cell line was optimized to ensure assay linearity in 384-well plates.
# (§2) Compound 1 was dissolved in dimethyl sulfoxide (DMSO) to prepare a 10 mM stock solution. A serial titration was performed to produce a working concentration range of […] to 10 mM. Aliquots to produce final concentrations of 1.5 nM to 10 μM were spotted via an acoustic dispenser (EDC ATS-100) into an empty 384-well plate. Compound 1 was spotted in a 10-point serial dilution fashion (3-fold dilution) in duplicate within the plate. The DMSO concentration was kept constant for a final assay concentration of 0.1% DMSO. Plates were replicated for use with different cell lines and testing periods. After compound plate replication, all plates were sealed (Agilent ThermoLoc) and stored at −20° C. for up to 1 month. […] When ready for testing, plates were removed from the freezer, thawed, and unsealed just prior to the addition of the test cells. Prior to testing, cells were grown and expanded in culture flasks to provide sufficient amounts of starting material. Cells were then diluted to the appropriate densities and added directly to the compound-spotted 384-well plates. Cells were allowed to grow for 96 hours at 37° C./5% CO2. At the time when compound was added (t0), initial cell number was assessed via a viability assay (Cell Titer-Glo) by quantifying the level of luminescence generated by ATP present in viable cells. After 96 hours, cell viability of compound-treated cells was assessed via Cell Titer-Glo and luminescence measurement. Cell lines were assayed for growth inhibition by Compound 1 in at least 3 independent tests. A control cell line (the lung tumor cell line, A549) was included in each of the assays. The compound response against this control cell line was monitored closely to enable comparison of the data generated through the assay period. All data were normalized and presented as a percentage of the DMSO-treated cells. Results were then expressed as a GI50 value. The GI50 value corrects for the cell count at time zero. In addition, the IC50 value of Compound 1 for each cell line was calculated.
# HepG2 = assay: Growth inhibition assay for HCC lines; conditions: HepG2, 96 hours, DMEM + 10% FBS
# Experimental: as §1, §2
# HuH-7 = assay: Growth inhibition assay for HCC lines; conditions: HuH-7, 96 hours, DMEM + 10% FBS
# Experimental: as §1, §2
# PLC-PRF-5 = assay: Growth inhibition assay for HCC lines; conditions: PLC-PRF-5, 96 hours, DMEM + 10% FBS
# Experimental: as §1, §2
# SK-HEP-1 = assay: Growth inhibition assay for HCC lines; conditions: SK-HEP-1, 96 hours, DMEM + 10% FBS
# Experimental: as §1, §2
# SNU-182 = assay: Growth inhibition assay for HCC lines; conditions: SNU-182, 96 hours, RPMI 1640 + 10% FBS
# Experimental: as §1, §2
# SNU-387 = assay: Growth inhibition assay for HCC lines; conditions: SNU-387, 96 hours, RPMI 1640 + 10% FBS
# Experimental: as §1, §2
# SNU-398 = assay: Growth inhibition assay for HCC lines; conditions: SNU-398, 96 hours, RPMI 1640 + 10% FBS
# Experimental: as §1, §2
# SNU-423 = assay: Growth inhibition assay for HCC lines; conditions: SNU-423, 96 hours, RPMI 1640 + 10% FBS
# Experimental: as §1, §2
# SNU-449 = assay: Growth inhibition assay for HCC lines; conditions: SNU-449, 96 hours, RPMI 1640 + 10% FBS
# Experimental: as §1, §2
# SNU-475 = assay: Growth inhibition assay for HCC lines; conditions: SNU-475, 96 hours, RPMI 1640 + 10% FBS
# Experimental: as §1, §2
# HL-60 = assay: Apoptosis assay for NHL lines (Caspase 3/7-Glo); conditions: HL-60, Leukemia M-AML, 24 hours, n = 1
# Experimental: (§3) Apoptosis Assay for NHL Lines. Prior to testing, cells were grown and expanded in culture flasks to provide sufficient amounts of starting material. Cells were then diluted to their desired densities and added directly to compound-spotted 384-well plates. Cells were allowed to grow for 24 hours in 5% CO2 at 37° C. The apoptotic response was assessed by quantifying the activities of caspase 3 and caspase 7 (Caspase 3/7-Glo) in treated cells and control cells at the 24-hour time point. All data was normalized and represented as a value relative to the DMSO-treated cells. Results were then expressed as CalX, which is the minimum compound concentration required to double the levels of caspase 3/7 relative to those of the DMSO-treated cells during their treatment period.
# KARPAS-1106P = assay: Apoptosis assay for NHL lines (Caspase 3/7-Glo); conditions: NHL DLBCL, 24 hours, n = 1
# Experimental: as §3
# OCI-LY-10 = assay: Apoptosis assay for NHL lines (Caspase 3/7-Glo); conditions: OCI-LY-10, NHL DLBCL, 24 hours, n = 1
# Experimental: as §3
# OCI-LY-7 = assay: Apoptosis assay for NHL lines (Caspase 3/7-Glo); conditions: OCI-LY-7, NHL DLBCL, 24 hours, n = 1
# Experimental: as §3
# REC-1 = assay: Apoptosis assay for NHL lines (Caspase 3/7-Glo); conditions: REC-1, NHL MCL, 24 hours, n = 1
# Experimental: as §3
# SU-DHL-10 = assay: Apoptosis assay for NHL lines (Caspase 3/7-Glo); conditions: SU-DHL-10, NHL DLBCL, 24 hours, n = 1
# Experimental: as §3
# SU-DHL-4 = assay: Apoptosis assay for NHL lines (Caspase 3/7-Glo); conditions: SU-DHL-4, NHL DLBCL, 24 hours, n = 1
# Experimental: as §3
# Toledo = assay: Apoptosis assay for NHL lines (Caspase 3/7-Glo); conditions: NHL DLBCL, 24 hours, n = 1
# Experimental: as §3
# WSU-DLCL2 = assay: Apoptosis assay for NHL lines (Caspase 3/7-Glo); conditions: WSU-DLCL2, NHL DLBCL, 24 hours, n = 1
# Experimental: as §3
# WSU-FSCCL = assay: Apoptosis assay for NHL lines (Caspase 3/7-Glo); conditions: NHL FL, 24 hours, n = 1
# Experimental: as §3
# WSU-NHL = assay: Apoptosis assay for NHL lines (Caspase 3/7-Glo); conditions: NHL FL, 24 hours, n = 1
# Experimental: as §3
structure (smiles),measurement,setting,value
"CO[C@H]1CC[C@H](N2C(=O)CNc3ncc(-c4ccc(C(C)(C)O)nc4)nc32)CC1 [Compound 1, 7-(6-(2-hydroxypropan-2-yl)pyridin-3-yl)-1-((1r,4r)-4-methoxycyclohexyl)-3,4-dihydropyrazino-[2,3-b]pyrazin-2(1H)-one]",GI50,Hep3B,260 ± 70 nM
same,IC50,Hep3B,340 ± 110 nM
same,GI50,HepG2,240 ± 60 nM
same,IC50,HepG2,320 ± 130 nM
same,GI50,HuH-7,70 ± 30 nM
same,IC50,HuH-7,100 ± 40 nM
same,GI50,PLC-PRF-5,310 ± 70 nM
same,IC50,PLC-PRF-5,430 ± 70 nM
same,GI50,SK-HEP-1,270 ± 40 nM
same,IC50,SK-HEP-1,330 ± 70 nM
same,GI50,SNU-182,80 ± 30 nM
same,IC50,SNU-182,260 ± 100 nM
same,GI50,SNU-387,1260 ± 470 nM
same,IC50,SNU-387,2470 ± 930 nM
same,GI50,SNU-398,280 ± 60 nM
same,IC50,SNU-398,290 ± 50 nM
same,GI50,SNU-423,300 ± 50 nM
same,IC50,SNU-423,480 ± 60 nM
same,GI50,SNU-449,370 ± 70 nM
same,IC50,SNU-449,480 ± 110 nM
same,GI50,SNU-475,460 ± 90 nM
same,IC50,SNU-475,690 ± 140 nM
same,CalX (minimum concentration to double caspase 3/7),HL-60,10
same,CalX (minimum concentration to double caspase 3/7),KARPAS-1106P,0.25
same,CalX (minimum concentration to double caspase 3/7),OCI-LY-10,0.7
same,CalX (minimum concentration to double caspase 3/7),OCI-LY-7,0.07
same,CalX (minimum concentration to double caspase 3/7),REC-1,0.79
same,CalX (minimum concentration to double caspase 3/7),SU-DHL-10,0.54
same,Apoptotic,SU-DHL-4,N/Y
same,CalX (minimum concentration to double caspase 3/7),SU-DHL-4,5.15
same,Apoptotic,Toledo,N/Y
same,CalX (minimum concentration to double caspase 3/7),Toledo,3.48
same,CalX (minimum concentration to double caspase 3/7),WSU-DLCL2,0.19
same,CalX (minimum concentration to double caspase 3/7),WSU-FSCCL,0.16
same,CalX (minimum concentration to double caspase 3/7),WSU-NHL,0.16
